Where a name gives a salt, the structure may show the parent alone.

The first assay deals with hPSC-SCs.
Conditions: not given
Take `O=[N+]([O-])c1cc([As](=O)(O)O)ccc1O` [Roxarsone]: the z.score.t is given as −0.751.

`c1ccc2c(c1)CCCc1cc(NCCN3CCOCC3)nnc1-2` [SR-95639A] had a z.score.t of −0.4139.

With `C[n+]1cc2c3c(ccc2c2ccc4cc5c(cc4c21)OCO5)OCO3` [Sanguinarine], the z.score.t is given as −1.558.

On to `Br.C[N+]1([O-])[C@@H]2CC(OC(=O)[C@H](CO)c3ccccc3)C[C@H]1[C@@H]1O[C@@H]12` (stereo partly drawn) [Scopolamin-N-oxide hydrobromide], for which the z.score.t is reported as −0.1983.

In turn, `CN1[C@@H]2C[C@@H](OC(=O)[C@H](CO)c3ccccc3)C[C@H]1[C@@H]1O[C@@H]12` [Scopolamine hydrochloride] came in with a z.score.t of 0.07936.

`COc1cc2c(cc1O)[C@@H]1Cc3ccc(OC)c(O)c3CN1CC2` [Scoulerine] registered a z.score.t of −1.209.

As for `O=C1C=C2C=C[C@@H]3C[C@@]2(O1)[C@H]1CCCCN31` [Securinine], the z.score.t is −0.9042.

In turn, `C#CCN(C)[C@H](C)Cc1ccccc1` [Selegiline hydrochloride] had a z.score.t of −0.9978.

The compound `C=C1C/C(=C/C)C(=O)O[C@@H]2CCN3CC=C(COC(=O)[C@]1(C)O)[C@H]23` [Seneciphylline] yielded a z.score.t of 0.767.

Turning to `NCCc1c[nH]c2ccc(O)cc12` [Serotonin hydrochloride], the z.score.t was −1.195.

Turning to `C[C@@H]1CC[C@@]2(NC1)O[C@H]1C[C@H]3[C@@H]4CC=C5C[C@@H](O)CC[C@]5(C)[C@H]4CC[C@]3(C)[C@H]1[C@@H]2C` [Solasodine], the z.score.t was determined as 0.9178.

Consider `C1CCN2C[C@@H]3C[C@@H](CN4CCCC[C@@H]34)[C@H]2C1` [Sparteine (−)], for which the z.score.t worked out at 0.1131.

As for `C[C@]12CC[C@H]3[C@@H](CC[C@]4(O)C[C@@H](O)CC[C@]34C=O)[C@@]1(O)CC[C@@H]2C1=CC(=O)OC1` [Strophanthidin], the z.score.t was −2.4.

`C[C@@H]1O[C@@H](O[C@H]2C[C@@H](O)[C@]3(CO)[C@H]4[C@H](O)C[C@]5(C)[C@@H](C6=CC(=O)OC6)CC[C@]5(O)[C@@H]4CC[C@]3(O)C2)[C@H](O)[C@H](O)[C@H]1O.O.O.O.O.O.O.O.O` [Strophantine octahydrate] came in with a z.score.t of −2.04.

Still in this assay, the particulars now being: HTS viability of hPSC-SCs in the presence of 30 mM glucose; Prestwick library; Table S4.
As to `CC(NCCc1ccc(O)cc1)C(O)c1ccc(O)cc1` (stereo not drawn) [Ritodrine hydrochloride], the z.score.t stood at 0.5046.

Turning to `COc1ccc(C2CNC(=O)C2)cc1OC1CCCC1` (stereo not drawn) [Rolipram], the z.score.t is −0.01101.

For `CN(C)[C@@H]1C(O)=C(C(=O)NCN2CCCC2)C(=O)[C@@]2(O)C(O)=C3C(=O)c4c(O)cccc4[C@@](C)(O)[C@H]3C[C@@H]12` [Rolitetracycline], the z.score.t stood at 1.601.

Take `Cn1c([N+](=O)[O-])cnc1COC(N)=O` [Ronidazole]: the z.score.t is −0.5875.

Take `CC(=O)OCC(=O)NCCCOc1cccc(CN2CCCCC2)c1` [Roxatidine Acetate HCl]: the z.score.t is given as 1.139.

Take `CC[C@H]1OC(=O)[C@H](C)[C@@H](O[C@H]2C[C@@](C)(OC)[C@@H](O)[C@H](C)O2)[C@H](C)[C@@H](O[C@@H]2O[C@H](C)C[C@H](N(C)C)[C@H]2O)[C@](C)(O)C[C@@H](C)/C(=N\OCOCCOC)[C@H](C)[C@@H](O)[C@]1(C)O` [Roxithromycin]: the z.score.t came out at 0.3241.

Turning to `CC(C)Cc1ccc([C@H](C)C(=O)O)cc1` [S-(+)-ibuprofen], the z.score.t came to 1.02.

Turning to `CC(C)(C)NCC(O)c1ccc(O)c(CO)c1` (stereo not drawn) [Salbutamol], the z.score.t was 0.5041.

With `OCc1cc(C(O)CNCCCCCCOCCCCc2ccccc2)ccc1O` (stereo not drawn) [Salmeterol], the z.score.t is given as −1.331.

`C[C@@H]1NCCc2cc(O)c(O)cc21` [Salsolinol hydrobromide]: the z.score.t stood at 0.4048.

Take `CC(C)(C)NC(=O)[C@@H]1C[C@@H]2CCCC[C@@H]2CN1C[C@@H](O)[C@H](Cc1ccccc1)NC(=O)[C@H](CC(N)=O)NC(=O)c1ccc2ccccc2n1` [Saquinavir mesylate]: the z.score.t is listed as −0.3033.

Consider `COc1cc2ccc(=O)oc2cc1O` [Scopoletin], for which the z.score.t was −1.558.

In the case of `Clc1ccc(C(Cn2ccnc2)OCc2csc3c(Cl)cccc23)c(Cl)c1` (stereo not drawn) [Sertaconazole nitrate], the z.score.t was −1.558.

Regarding `CN[C@H]1CC[C@@H](c2ccc(Cl)c(Cl)c2)c2ccccc21` [Sertraline], the z.score.t was −1.388.

For the compound `CCC(C)(C)C(=O)O[C@H]1C[C@@H](C)C=C2C=C[C@H](C)[C@H](CC[C@@H]3C[C@@H](O)CC(=O)O3)[C@H]21` [Simvastatin], the z.score.t is −0.9395.

On to `CN[C@@H]1[C@@H](O)[C@@H](O[C@@H]2[C@@H](O)[C@H](O[C@H]3OC(CN)=CC[C@H]3N)[C@@H](N)C[C@H]2N)OC[C@]1(C)O` [Sisomicin sulfate], for which the z.score.t is given as −0.3319.

For `COc1ccc2c(OC)c3ccoc3nc2c1OC` [Skimmianine], the z.score.t was −0.7376.

In the case of `CC(C)NCC(O)c1ccc(NS(C)(=O)=O)cc1` (stereo not drawn) [Sotalol hydrochloride], the z.score.t is reported as −1.056.

With `CC(=O)N[C@@H](CC(=O)N[C@@H](CCC(=O)O)C(=O)O)C(=O)O` [Spaglumic acid], the z.score.t is listed as 2.046.

For the compound `CN[C@@H]1[C@H](O)[C@H](NC)[C@H]2O[C@@]3(O)C(=O)C[C@@H](C)O[C@H]3O[C@@H]2[C@H]1O` [Spectinomycin dihydrochloride], the z.score.t was 1.101.

`O=C(CCCN1CCC2(CC1)C(=O)NCN2c1ccccc1)c1ccc(F)cc1` [Spiperone]: the z.score.t is 0.09999.

Turning to `CC(=O)S[C@@H]1CC2=CC(=O)CC[C@]2(C)[C@H]2CC[C@@]3(C)[C@@H](CC[C@@]34CCC(=O)O4)[C@H]12` [Spironolactone], the z.score.t worked out at 0.05523.

As to `C[N+]1(C)CCC[C@H]1C(=O)[O-].Cl` [Stachydrine hydrochloride], the z.score.t is on record as −0.8304.

Take `[H]/N=C(/N)N[C@H]1[C@H](O)[C@@H](O)[C@H](O[C@@H]2O[C@@H](C)[C@](O)(C=O)[C@H]2O[C@@H]2O[C@@H](CO)[C@H](O)[C@@H](O)[C@@H]2NC)[C@@H](N/C(N)=N\[H])[C@@H]1O` [Streptomycin sulfate]: the z.score.t was −1.359.

`O=C(O)CCC(=O)Nc1ccc(S(=O)(=O)Nc2nccs2)cc1` [Succinylsulfathiazole]: the z.score.t was −0.6792.

On to `Clc1ccc(CSC(Cn2ccnc2)c2ccc(Cl)cc2Cl)cc1` (stereo not drawn) [Sulconazole nitrate], for which the z.score.t is recorded as −0.2136.

In the case of `Nc1ccc(S(=O)(=O)NC(=O)c2ccccc2)cc1` [Sulfabenzamide], the z.score.t is reported as −0.9042.

For the compound `CC(=O)[N-]S(=O)(=O)c1ccc(N)cc1.O.[Na+]` [Sulfacetamide sodic hydrate], the z.score.t is −0.2865.

Take `Nc1ccc(S(=O)(=O)Nc2ccc(Cl)nn2)cc1` [Sulfachloropyridazine]: the z.score.t is on record as −0.1014.

As for `Nc1ccc(S(=O)(=O)Nc2ncccn2)cc1` [Sulfadiazine], the z.score.t was 0.5856.

For the compound `COc1cc(NS(=O)(=O)c2ccc(N)cc2)nc(OC)n1` [Sulfadimethoxine], the z.score.t worked out at 0.1469.

In the case of `COc1ncnc(NS(=O)(=O)c2ccc(N)cc2)c1OC` [Sulfadoxine], the z.score.t is 0.8015.

Consider `[H]/N=C(/N)NS(=O)(=O)c1ccc(N)cc1` [Sulfaguanidine], for which the z.score.t is −0.2425.

On to `Cc1ccnc(NS(=O)(=O)c2ccc(N)cc2)n1` [Sulfamerazine], for which the z.score.t is 0.3022.

In the case of `COc1cnc(NS(=O)(=O)c2ccc(N)cc2)nc1` [Sulfameter], the z.score.t turned out to be 1.493.

Consider `Cc1cc(C)nc(NS(=O)(=O)c2ccc(N)cc2)n1` [Sulfamethazine sodium salt], for which the z.score.t came out at 0.3022.

In the case of `Cc1nnc(NS(=O)(=O)c2ccc(N)cc2)s1` [Sulfamethizole], the z.score.t was 1.132.

As to `Cc1cc(NS(=O)(=O)c2ccc(N)cc2)no1` [Sulfamethoxazole], the z.score.t was 0.02534.

With `COc1ccc(NS(=O)(=O)c2ccc(N)cc2)nn1` [Sulfamethoxypyridazine], the z.score.t was 0.2139.

Take `COc1cc(NS(=O)(=O)c2ccc(N)cc2)ncn1` [Sulfamonomethoxine]: the z.score.t worked out at 0.453.

As to `Nc1ccc(S(N)(=O)=O)cc1` [Sulfanilamide], the z.score.t is −0.4325.

With `Nc1ccc(S(=O)(=O)Nc2ccnn2-c2ccccc2)cc1` [Sulfaphenazole], the z.score.t came out at 0.4626.

In the case of `Nc1ccc(S(=O)(=O)Nc2ccccn2)cc1` [Sulfapyridine], the z.score.t is listed as 1.853.

In the case of `Nc1ccc(S(=O)(=O)Nc2cnc3ccccc3n2)cc1` [Sulfaquinoxaline sodium salt], the z.score.t came out at 1.117.

In the case of `O=C(O)c1cc(/N=N/c2ccc(S(=O)(=O)Nc3ccccn3)cc2)ccc1O` [Sulfasalazine], the z.score.t is reported as 0.1344.

For the compound `Nc1ccc(S(=O)(=O)Nc2nccs2)cc1` [Sulfathiazole], the z.score.t was 0.9109.

On to `O=C1C(CC[S+]([O-])c2ccccc2)C(=O)N(c2ccccc2)N1c1ccccc1` (stereo not drawn) [Sulfinpyrazone], for which the z.score.t was determined as 0.3922.

Take `Cc1noc(NS(=O)(=O)c2ccc(N)cc2)c1C` [Sulfisoxazole]: the z.score.t came out at 0.1556.

In the case of `CC1=C(CC(=O)O)c2cc(F)ccc2/C1=C\c1ccc([S+](C)[O-])cc1` (stereo not drawn) [Sulindac], the z.score.t is −0.2425.

Turning to `COc1cc([S+](C)[O-])ccc1-c1nc2ncccc2[nH]1` (stereo not drawn) [Sulmazole], the z.score.t is recorded as 0.6376.

For `CCCCCCCCNC(C)C(O)c1ccc(SC(C)C)cc1` (stereo not drawn) [Suloctidil], the z.score.t is given as −0.649.

For `CCN1CCCC1CNC(=O)c1cc(S(N)(=O)=O)ccc1OC` (stereo not drawn) [Sulpiride], the z.score.t is 0.1594.

For the compound `CC(C(=O)O)c1ccc(C(=O)c2cccs2)cc1` (stereo not drawn) [Suprofen], the z.score.t amounted to 0.2361.

Regarding `CCCCC1(COC(=O)CCC(=O)O)C(=O)N(c2ccccc2)N(c2ccccc2)C1=O` [Suxibuzone], the z.score.t is listed as 0.9352.

For `CCOC(=O)Oc1c(OC)cc(C(=O)O[C@@H]2C[C@@H]3CN4CCc5c([nH]c6cc(OC)ccc56)[C@H]4C[C@@H]3[C@H](C(=O)OC)[C@H]2OC)cc1OC` [Syrosingopine], the z.score.t is −0.4543.

Values taken from patent US20260053861A1, “CELL COMPOSITIONS AND METHODS OF USING THE SAME” (THE REGENTS OF THE UNIVERSITY OF CALIFORNIA, priority 2022, published 2026).
